Measurements: patent publication US20220017572A1, “GEMINOID LIPOPEPTIDE COMPOUNDS AND THEIR USES” (Erasmus University Medical Center Rotterdam, priority 2016, published 2022)
Residues, ends and D or L forms follow the SMILES beside them.

Key:
trypsin = target: T1, trypsin (Bos taurus, UniProt P00760); assay: Trypsin inhibition, fluorimetric enzyme assay; assay type: biochemical; conditions: for remaining activity at 18 µM: 18 μM inhibitor; for remaining activity at 55 µM: 55 μM inhibitor; for remaining activity at 85 µM: 85 μM inhibitor
T1 construct: gene PRSS1
T1 sequence (P00760 24-246): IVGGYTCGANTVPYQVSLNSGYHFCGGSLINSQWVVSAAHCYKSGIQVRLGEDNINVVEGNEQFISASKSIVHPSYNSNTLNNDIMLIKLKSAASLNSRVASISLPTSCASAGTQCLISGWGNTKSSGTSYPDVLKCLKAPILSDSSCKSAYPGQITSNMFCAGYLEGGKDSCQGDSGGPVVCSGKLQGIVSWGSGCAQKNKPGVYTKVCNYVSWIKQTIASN
Method: (§1) The enzyme was dissolved in 1 mL MES buffer (10 mM), 1 mM CaCl2, pH 7.0 at 36.5° C. Substrate was added in a concentration 10 times the Km, and the inhibitor compounds of type C (C16-KGnK-C16, C16-KAnK-C16, and C16-RAnR-C16) were added in increasing concentrations (1.0, 5.0, 10.0, 20.0, 40.0 μL) from a stock solution of 2 mg in 1 mL DMSO. The residual activity was measured in a Hitachi F2500 spectrofluorimeter, and plots were fitted using the Grafit® software (Erithracus Software, Horley, Surrey, UK). All the assays were calculated by the Morrison equation for competitive inhibition (eq. 1, [Morrison, 1969]). The amount of substrate used for the tight binding titration experiments follow all the requirements, where [S]<<Km for all enzymes, so the Kiapp=Ki.
(§2) The first group of gemini-like peptide amphiphiles to be screened was that of C16-K(G or A)nK-C16 (compound type C, with R1=n-C15H31, R2=n-C16H33). […] The results of the Ki determination for trypsin, dengue 2 protease, and human furin are given in Table 1A; some general data for the inhibition by this type of compounds are given in Table 1B. For most compounds in Table 1 the Ki could be derived from competitive inhibition experiments. Judging from the Ki values with the relatively simple substrate Z-RR-MCA, the best inhibitors for dengue 2 protease contain alanine (A) rather than glycine (G).

dengue 2 protease [1] = target: T2, dengue 2 protease (Dengue virus type 2, UniProt P14340); assay: Dengue 2 protease inhibition, hydrolysis of Z-RR-MCA; assay type: biochemical, dengue 2 virus; conditions: for activity at 5 µM: 5 μM inhibitor; for activity at 10 µM: 10 μM inhibitor; for activity at 15 µM: 15 μM inhibitor; for activity at 20 µM: 20 μM inhibitor; for activity at 40 µM: 40 μM inhibitor
T2 construct: The active site of the dengue protease is in the N-terminal part of NS3
T2 sequence (P14340 1476-1653): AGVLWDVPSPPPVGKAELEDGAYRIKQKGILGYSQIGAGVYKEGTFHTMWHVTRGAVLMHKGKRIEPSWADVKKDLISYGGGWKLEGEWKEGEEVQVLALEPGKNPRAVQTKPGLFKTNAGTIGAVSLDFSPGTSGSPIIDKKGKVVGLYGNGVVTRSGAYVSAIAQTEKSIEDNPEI

human furin = human furin (Homo sapiens, UniProt P09958); assay: Human furin inhibition, hydrolysis of Ac-RVRR-MCA; assay type: biochemical; conditions: 36.5° C.; for activity at 5 µM: 5 μM inhibitor; for activity at 10 µM: 10 μM inhibitor; for activity at 15 µM: 15 μM inhibitor; for activity at 20 µM: 20 μM inhibitor; for activity at 40 µM: 40 μM inhibitor
human furin, sequence (P09958 108-794): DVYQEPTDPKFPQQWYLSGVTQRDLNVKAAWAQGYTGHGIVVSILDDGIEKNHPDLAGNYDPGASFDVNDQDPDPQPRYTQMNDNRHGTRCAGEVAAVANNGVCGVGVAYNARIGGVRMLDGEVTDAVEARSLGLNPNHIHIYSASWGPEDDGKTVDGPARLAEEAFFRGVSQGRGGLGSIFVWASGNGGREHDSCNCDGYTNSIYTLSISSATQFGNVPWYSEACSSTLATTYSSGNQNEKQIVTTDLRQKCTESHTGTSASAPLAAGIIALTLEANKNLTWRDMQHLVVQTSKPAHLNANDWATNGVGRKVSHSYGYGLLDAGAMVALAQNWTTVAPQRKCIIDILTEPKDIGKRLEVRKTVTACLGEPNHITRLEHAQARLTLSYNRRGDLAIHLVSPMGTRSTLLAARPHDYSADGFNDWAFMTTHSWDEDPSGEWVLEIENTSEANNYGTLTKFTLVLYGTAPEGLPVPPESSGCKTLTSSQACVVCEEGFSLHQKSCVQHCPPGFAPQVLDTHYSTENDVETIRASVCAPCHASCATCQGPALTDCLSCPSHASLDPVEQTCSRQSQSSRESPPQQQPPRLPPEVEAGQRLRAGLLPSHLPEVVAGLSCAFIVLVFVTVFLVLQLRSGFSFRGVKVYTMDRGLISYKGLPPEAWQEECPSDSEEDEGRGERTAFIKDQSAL
Method: as §1
However, for furin we used a correction of Ki app, where [S]˜Km (eq. 2).
Range of Proteases Inhibited by Geminoids, Determination of Ki with Z-RR-MCA (Dengue 2 Protease) and Ac-RVRR-MCA (Furin) (SEQ ID NO:60).

thrombin = thrombin (Homo sapiens, UniProt P00734); assay: Thrombin inhibition, fluorimetric enzyme assay; assay type: biochemical; conditions: 36.5° C., read-out: Residual Activity (%) Thrombin; for remaining activity at 18 µM: 18 μM inhibitor; for remaining activity at 55 µM: 55 μM inhibitor; for remaining activity at 85 µM: 85 μM inhibitor
Method: as §1, with “Kiapp=Ki. […]” for “Kiapp=Ki.”

dengue 2 protease [2] = target: T2, dengue 2 protease; assay: Dengue 2 protease inhibition in presence of Triton X-100 (detergent test, Nature Protocol); assay type: biochemical, dengue 2 virus; conditions: 30 μM of inhibitor, 0.05% Triton X-100; for Activity with 0.05% Triton: initial activity in UAF/min
From the text: A further investigation of the interactions of the geminoid inhibitors with biological membranes and with membrane-bound proteases is needed. […] The preparation and tests of peptides symmetrically, asymmetrically and singly alkylated with saturated, short (C6), and unsaturated (C18:1) alkyl tails are in progress.

dengue 2 protease [3] = target: T2, dengue 2 protease; assay: Dengue 2 protease inhibition, hydrolysis of Z-RR-MCA; assay type: biochemical, dengue 2 virus; parameters: unit not given here; conditions: 30 μM of inhibitor; 10 μM Z-RR-MCA, pH 9.0, 37° C.; initial activity in UAF/min
plasmin = plasmin (Homo sapiens, UniProt P00747); assay: Plasmin inhibition, fluorimetric enzyme assay; assay type: biochemical; conditions: 36.5° C., read-out: Residual Activity (%) Plasmin
plasmin, sequence (P00747 581-810 limits assumed, species assumed): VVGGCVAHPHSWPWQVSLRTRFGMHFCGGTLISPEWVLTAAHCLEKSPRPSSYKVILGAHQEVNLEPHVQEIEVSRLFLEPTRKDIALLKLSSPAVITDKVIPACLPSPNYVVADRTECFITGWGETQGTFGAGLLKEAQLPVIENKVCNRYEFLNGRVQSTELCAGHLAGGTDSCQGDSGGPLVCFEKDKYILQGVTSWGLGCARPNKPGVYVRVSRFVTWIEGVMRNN
plasmin, sequence (P00747 97-580 partner limits assumed, species assumed): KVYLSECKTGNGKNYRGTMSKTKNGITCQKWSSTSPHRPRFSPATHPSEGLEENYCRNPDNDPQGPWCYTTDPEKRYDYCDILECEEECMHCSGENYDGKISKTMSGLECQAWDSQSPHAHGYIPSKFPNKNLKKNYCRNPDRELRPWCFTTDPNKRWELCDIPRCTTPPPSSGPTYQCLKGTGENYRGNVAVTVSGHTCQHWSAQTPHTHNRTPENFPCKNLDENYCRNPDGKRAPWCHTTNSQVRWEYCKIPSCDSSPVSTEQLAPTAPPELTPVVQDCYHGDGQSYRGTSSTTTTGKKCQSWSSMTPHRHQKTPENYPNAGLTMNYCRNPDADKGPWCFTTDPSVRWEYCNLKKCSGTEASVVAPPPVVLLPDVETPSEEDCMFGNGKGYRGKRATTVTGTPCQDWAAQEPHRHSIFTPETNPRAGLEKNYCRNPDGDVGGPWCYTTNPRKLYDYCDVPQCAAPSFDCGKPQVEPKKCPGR
Method: as §1, §2

[4] = 36.5° C., read-out: Residual Activity (%) Trypsin

| SMILES | Ki (trypsin) [µM] | remaining activity at 18 µM (trypsin; [4]) [%] | remaining activity at 55 µM (trypsin; [4]) [%] | remaining activity at 85 µM (trypsin; [4]) [%] | Ki (dengue 2 protease [1]) [µM] | activity at 5 µM (dengue 2 protease [1]; 36.5° C.) [%] | activity at 10 µM (dengue 2 protease [1]; 36.5° C.) [%] | activity at 15 µM (dengue 2 protease [1]; 36.5° C.) [%] | activity at 20 µM (dengue 2 protease [1]; 36.5° C.) [%] | activity at 40 µM (dengue 2 protease [1]; 36.5° C.) [%] | activity at 5 µM (human furin) [%] | activity at 10 µM (human furin) [%] | activity at 15 µM (human furin) [%] | activity at 20 µM (human furin) [%] | activity at 40 µM (human furin) [%] | remaining activity at 55 µM (thrombin) [%] | remaining activity at 85 µM (thrombin) [%] | % recovery in presence of Triton (dengue 2 protease [2]) [%] | Activity with 0.05% Triton (dengue 2 protease [2]) | Activity with inhibitors (dengue 2 protease [3]) | also measured |
| --- | --- | --- | --- | --- | --- | --- | --- | --- | --- | --- | --- | --- | --- | --- | --- | --- | --- | --- | --- | --- | --- |
| CCCCCCCCCCCCCCCCNC(=O)[C@H](CCCCN)NC(=O)CNC(=O)CNC(=O)CNC(=O)[C@H](CCCCN)NC(=O)CCCCCCCCCCCCCCC [C16-KGGGK-C16, C15H31CO-KGGGK-NH—C16H33] (HELM PEPTIDE1{[CCCCCCCCCCCCCCCC(=O)[*:2]].K.G.G.G.K.[CCCCCCCCCCCCCCCCN[*:1]]}$$$$V2.0) | 11.1 | 84 | 56 | 38 | 2.5 | 86 | 80 | 74 | 65 | 51 | 68 | 35 | 29 | 20 | 0 | 64 | 45 | 75 | 154 | 40 | remaining activity at 18 µM (thrombin): 81% |
| CCCCCCCCCCCCCCCCNC(=O)[C@H](CCCCN)NC(=O)[C@H](CCCCN)NC(=O)CCCCCCCCCCCCCCC [C16-KK-C16, C15H31CO-KK-NH—C16H33] | 84.7 | – | 58 | 43 | 5.37 | – | – | – | 58 | – | – | – | – | 10 | – | 48 | 37 | 52 | 113 | 48 | remaining activity at 15 µM (trypsin; 15 μM inhibitor, 36.5° C., read-out: Residual Activity (%) Trypsin): 82%; activity at 50 µM (dengue 2 protease [1]; 50 μM inhibitor, 36.5° C.): 37%; activity at 100 µM (dengue 2 protease [1]; 100 μM inhibitor, 36.5° C.): 7%; activity at 50 µM (human furin; 50 μM inhibitor): 5%; activity at 100 µM (human furin; 100 μM inhibitor): 0%; remaining activity at 15 µM (thrombin; 15 μM inhibitor): 62%; remaining activity at 15 µM (plasmin; 15 μM inhibitor): 39%; remaining activity at 55 µM (plasmin; 55 μM inhibitor): 11%; remaining activity at 85 µM (plasmin; 85 μM inhibitor): 4% |
| CCCCCCCCCCCCCCCCNC(=O)[C@H](CCCCN)NC(=O)CNC(=O)CNC(=O)CNC(=O)CNC(=O)[C@H](CCCCN)NC(=O)CCCCCCCCCCCCCCC [C16KG4KC16] (HELM PEPTIDE1{[CCCCCCCCCCCCCCCC(=O)[*:2]].K.G.G.G.G.K.[CCCCCCCCCCCCCCCCN[*:1]]}$$$$V2.0) | – | 81 | 67 | 53 | 1.37 | 86 | 78 | 70 | 60 | 45 | 82 | 64 | 54 | 23 | 0 | 59 | 41 | 63 | 125 | 0 | remaining activity at 18 µM (thrombin): 88% |
